52 compounds from EP4755881A1 (Wuhan Createrna Science and Technology Co., Ltd., priority 2023, dated 2025) can be followed below.

This experiment deals with T1, LPAR1 receptor (Homo sapiens, UniProt Q92633).
T1 construct: expressed in transfected cells
T1 sequence (Q92633 whole entry): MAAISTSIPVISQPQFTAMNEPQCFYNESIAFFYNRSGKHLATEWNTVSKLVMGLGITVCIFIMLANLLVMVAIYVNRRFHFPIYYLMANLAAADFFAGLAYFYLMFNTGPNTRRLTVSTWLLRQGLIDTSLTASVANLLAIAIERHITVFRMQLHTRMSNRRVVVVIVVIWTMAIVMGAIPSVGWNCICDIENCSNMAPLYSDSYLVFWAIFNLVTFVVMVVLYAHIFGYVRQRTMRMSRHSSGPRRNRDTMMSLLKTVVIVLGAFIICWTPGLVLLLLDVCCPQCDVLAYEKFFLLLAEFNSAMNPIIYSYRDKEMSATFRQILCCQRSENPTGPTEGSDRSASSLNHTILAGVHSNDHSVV
Briefly: LPAR1 in vitro biological activity evaluation 2: HTRF cAMP kit (LANCE Ultra cAMP Kit) assay in CHO stable transfected cell line expressing the LPAR1 receptor. The experiment is classed as cell-based. Conditions: Table 2, read-out: LPAR1 inhibitory activity IC50. As for the experimental part:
The inhibitory effects of the compounds of the present disclosure on the LPAR1 receptor were determined using a Chinese hamster ovary (CHO) stable transfected cell line expressing the LPAR1 receptor, through the HTRF cAMP kit (LANCE® Ultra cAMP Kit).
The CHO cell line expressing the LPAR1 receptor was cultured in F-12 medium (Gibco, 117650054) containing 10% fetal bovine serum (FBS, Avantor, 76294-180) and 0.2 mg/mL hygromycin B (Solarbio, H8080-1g) at 37°C with 5% CO2. Cell passage, recovery, and cryopreservation were performed according to conventional methods. The stable transfected cell line was cultured to 80% confluence, digested with trypsin to collect cells, counted, and then seeded at 5 µL/well in a 384-well plate (500 cells/5 µL). The 1× Stimulation Buffer was prepared according to the instructions of the kit (LANCE® Ultra cAMP Kit). 1 µL of the test compound solution (diluted to 10× with 1× Stimulation Buffer) was added to the corresponding experimental wells, followed by centrifugation and incubation at 37°C for 10 minutes. […] 5 µL/well of Eu-cAMP (diluted with Detection buffer) was added to the corresponding experimental wells. 5 µL/well of ULight™-anti-cAMP antibody (diluted with Detection buffer) was added to the corresponding experimental wells, followed by centrifugation and incubation at room temperature for 1 hour. After the incubation was completed, the readings at 665 nm and 620 nm under 330 nm excitation were detected using the HTS high-throughput drug screening multifunctional microplate reader (BMG, PHERAstar FSX). The IC50 values were calculated by fitting nonlinear regression (dose response - variable slope) using GraphPad Prism software.
(Time-resolved FRET reads energy transfer from a long-lived donor to a nearby acceptor.)
As for `CCC(F)(F)[C@@H](C)OC(=O)Nc1c(-c2ccc(C#CC3(CC(=O)O)CC(OC)C3)c(F)n2)noc1C` (stereo partly shown) [compound 491], the IC50 (as a rule, the midpoint of a concentration-inhibition curve) was found to be 27.1 nM.

Take `CCC(F)(F)[C@@H](C)OC(=O)Nc1c(-c2ccc(C#Cc3ccncc3C(=O)O)c(C)n2)nnn1C` [compound 474, (R)-4-((6-(5-((((3,3-difluoropentan-2-yl)oxy)carbonyl)amino)-1-methyl-1H-1,2,3-triazol-4-yl)-2-methylpyridin-3-yl)ethynyl)nicotinic acid]: the half-inhibitory concentration (IC50) worked out at 167 nM. Regarding `CCCN(C)C(=O)OCc1c(-c2ccc(C#CC3(CC(=O)O)CC4(CC4)C3)c(C)n2)nnn1C` [compound 115], the half-inhibitory concentration (IC50) was found to be 8.3 nM.

On to `CCOC1CC(C#Cc2ccc(-c3nnn(C)c3NC(=O)O[C@H](C)C(F)(F)CC)nc2CC)(CC(=O)O)C1` (stereo partly shown) [compound 489], for which the half-inhibitory concentration (IC50) stood at 14.1 nM.

In the case of `CCC[C@@H](C)OC(=O)Nc1c(-c2ccc(C#C[C@@H]3CC(F)(F)C[C@H]3C(=O)O)c(C)n2)nnn1C` [compound 304], the half-inhibitory concentration (IC50) was 134 nM.

Regarding `Cc1nc(-c2nnn(C)c2NC(=O)O[C@H](C)CC2CC2)ccc1C#C[C@@H]1CC[C@H]1C(=O)O` [compound 248], the IC50 turned out to be 72.2 nM. Turning to `CCCCN(C)C(=O)OCc1c(-c2ccc(C#CC3(CC(=O)O)CC(F)(F)C3)c(C)n2)nnn1C` [compound 109], the IC50 amounted to 23.9 nM.

Consider `Cc1nc(-c2onc(C)c2NC(=O)O[C@H](C)CC(C)(F)F)ccc1C#C[C@@H]1CC[C@H]1C(=O)O` [compound 340], for which the IC50 was determined as 83.9 nM. Consider `CCC(F)(F)[C@@H](C)OC(=O)Nc1c(-c2ccc(C#Cc3cc(C(F)(F)F)ncc3C(=O)O)c(C)n2)nnn1C` [compound 513], for which the IC50 worked out at 26.5 nM. The result for `CCCCN(C)C(=O)OCc1c(-c2ccc(C#CC3(CC(=O)O)CC(OC)C3)c(C)n2)nnn1C` (stereo not shown) [compound 113] reads 19.6 nM. Then `CCC(F)(F)[C@@H](C)OC(=O)Nc1c(C)noc1-c1ccc(C#C[C@@H]2CC[C@H]2C(=O)O)c(C)n1` [compound 486], with 34.1 nM; and `Cc1nc(-c2nnn(C)c2NC(=O)OC(C)C23CC(C2)C3)ccc1C#C[C@@H]1C[C@H]1C(=O)O` (stereo partly shown) [compound 294], with 195 nM.

Regarding `C[C@H](CC(C)(F)F)OC(=O)Nc1c(-c2ccc(C#CC3(CC(=O)O)CC4(CC4)C3)c(Cl)n2)nnn1C` [compound 502], the half-maximal inhibitory concentration (IC50) amounted to 7.2 nM. Then `Cc1nc(-c2nnn(C)c2NC(=O)O[C@H](C)C23CC(C2)C3)ccc1C#CC1(CC(=O)O)CC(F)(F)C1` [compound 432], with 16.6 nM; and `CCC(F)(F)[C@@H](C)OC(=O)Nc1c(-c2ccc(C#CC3(CC(=O)O)CC3)c(C(F)(F)F)n2)nnn1C` [compound 208, (R)-2-(1-((6-(5-((((3,3-difluoropentan-2-yl)oxy)carbonyl)amino)-1-methyl-1H-1,2,3-triazol-4-yl)-2-(trifluoromethyl)pyridin-3-yl)ethynyl)cyclopropyl)acetic acid], with 44.1 nM; and `CCOC1CC(C#Cc2ccc(-c3nnn(C)c3NC(=O)O[C@H](C)C(F)(F)CC)nc2C(F)(F)F)(CC(=O)O)C1` (stereo partly shown) [compound 490], with 8.6 nM. The result for `COC1CC(C#Cc2ccc(-c3nnn(C)c3NC(=O)O[C@H](C)c3ccccc3)nc2C)(CC(=O)O)C1` (stereo partly shown) [compound 464] reads 23.6 nM; that for `CCCN(C)C(=O)OCc1c(-c2ccc(C#CC3(CC(=O)O)CC3)c(C(F)(F)F)n2)nnn1C` [compound 101], 205 nM. For the compound `CCC[C@@H](C)OC(=O)Nc1c(-c2ccc(C#C[C@@H]3CCC[C@H]3C(=O)O)c(C)n2)nnn1C` [compound 305], the IC50 stood at 91.2 nM. For the compound `CCC[C@@H](C)OC(=O)Nc1c(-c2ccc(C#CC3(CC(=O)O)CC(OCC)C3)c(C)n2)nnn1C` (stereo partly shown) [compound 427], the IC50 amounted to 59 nM. As for `C[C@H](CC(C)(F)F)OC(=O)Nc1c(-c2ccc(C#CC3(CC(=O)O)CC4(CC4)C3)c(C(F)(F)F)n2)nnn1C` [compound 498], the IC50 is 6 nM.

Turning to `CCC(F)(F)[C@@H](C)OC(=O)Nc1c(-c2ccc(C#CC3(CC(=O)O)CC(OC)C3)c(Cl)n2)nnn1C` (stereo partly shown) [compound 461], the half-inhibitory concentration (IC50) stood at 23.4 nM.

For `CCc1nc(-c2nnn(C)c2NC(=O)O[C@H](C)C(F)(F)CC)ccc1C#CC1(CC(=O)O)CC1` [compound 233], the IC50 was 163 nM.

With `CCc1nc(-c2nnn(C)c2NC(=O)O[C@H](C)C(F)(F)CC)ccc1C#CC1(CC(=O)O)CC2(CC2)C1` [compound 504], the 50% inhibitory concentration (IC50) is 6.4 nM. The result for `CCCCN(C)C(=O)OCc1c(-c2ccc(C#CC3(CC(=O)O)CC(OCC)C3)c(C)n2)nnn1C` (stereo not shown) [compound 114] reads 9.2 nM.

Regarding `CCC(F)(F)[C@@H](C)OC(=O)Nc1c(C)noc1-c1ccc(C#C[C@@H]2CCC[C@H]2C(=O)O)c(C)n1` [compound 485], the IC50 is 52.3 nM. The result for `COC1CC(C#Cc2ccc(-c3nnn(C)c3NC(=O)O[C@H](C)c3ccccc3Cl)nc2C)(CC(=O)O)C1` (stereo partly shown) [compound 465] reads 30.9 nM; that for `Cc1nc(-c2nnn(C)c2NC(=O)O[C@H](C)c2ccccc2)ccc1C#C[C@@H]1CCC[C@H]1C(=O)O` [compound 402], 47.2 nM; that for `CCC(F)(F)[C@@H](C)OC(=O)Nc1c(-c2ccc(C#CC3(CC(=O)O)CCC3)c(C)n2)nnn1C` [compound 323], 14.8 nM.

As for `Cc1nc(-c2nnn(C)c2NC(=O)OC(C)C23CC(C2)C3)ccc1C#C[C@@H]1CC[C@H]1C(=O)O` (stereo partly shown) [compound 296], the IC50 amounted to 83.8 nM.

Regarding `CCc1nc(-c2nnn(C)c2NC(=O)O[C@H](C)CC(C)(F)F)ccc1C#CC1(CC(=O)O)CC2(CC2)C1` [compound 500], the IC50 was found to be 4.5 nM. The result for `COC1CC(C#Cc2ccc(-c3nnn(C)c3NC(=O)O[C@H](C)c3ccccc3F)nc2C)(CC(=O)O)C1` (stereo partly shown) [compound 466] reads 25.5 nM.

In the case of `CCCC(C)OC(=O)Nc1c(-c2ccc(C#CC3CCCC3C(=O)O)c(C)n2)nnn1C` (single isomer, unassigned) [305-A], the IC50 was 25.6 nM. Take `CCC(F)(F)[C@@H](C)OC(=O)Nc1c(C)noc1-c1ccc(C#CC2(CC(=O)O)CC(OC)C2)c(C)n1` (stereo partly shown) [compound 488]: the IC50 came out at 51.5 nM.

On to `Cc1nc(-c2nnn(C)c2COC(=O)N(C)CCC(C)(F)F)ccc1C#C[C@@H]1CCC[C@H]1C(=O)O` (single isomer, unassigned) [282-A], for which the IC50 worked out at 87.6 nM. On to `CCC[C@@H](C)OC(=O)Nc1c(-c2ccc(C#CC3(CC(=O)O)CC(OC)C3)c(C)n2)nnn1C` (single isomer, unassigned) [278-A], for which the IC50 is 46.2 nM. As for `Cc1nc(-c2nnn(C)c2NC(=O)O[C@H](C)c2ccccc2Cl)ccc1C#C[C@@H]1C[C@H]1C(=O)O` [compound 053], the IC50 was 117 nM.

On to `CCOC1CC(C#Cc2ccc(-c3nnn(C)c3NC(=O)O[C@H](C)CC(C)(F)F)nc2C)(CC(=O)O)C1` (stereo partly shown) [compound 430], for which the IC50 was 63.2 nM. For the compound `CCC[C@@H](C)OC(=O)Nc1c(-c2ccc(C#CC3(CC(=O)O)CC(OC)C3)c(C)n2)nnn1C` (single isomer, unassigned) [278-B], the 50% inhibitory concentration (IC50) was 56 nM.

For the compound `CCC(F)(F)[C@@H](C)OC(=O)Nc1c(-c2ccc(C#CC3(CC(=O)O)CC(OC)C3)c(C(F)(F)F)n2)noc1C` (stereo partly shown) [compound 493], the IC50 turned out to be 8.5 nM. As for `CCC[C@@H](C)OC(=O)Nc1c(-c2ccc(C#CC3(CC(=O)O)CC4(CC4)C3)c(C)n2)nnn1C` [compound 478], the IC50 stood at 2.1 nM. As to `Cc1nc(-c2nnn(C)c2NC(=O)O[C@H](C)CC(C)C)ccc1C#C[C@@H]1C[C@H]1C(=O)O` [compound 290], the IC50 turned out to be 190 nM. The result for `Cc1nc(-c2noc(C)c2NC(=O)O[C@H](C)CC(C)(F)F)ccc1C#CC1(CC(=O)O)CC1` [compound 334] reads 107 nM; that for `CCc1nc(-c2nnn(C)c2NC(=O)O[C@H](C)CC(C)(F)F)ccc1C#CC1(CC(=O)O)CC(OC)C1` (stereo partly shown) [compound 476], 76.5 nM.

Regarding `CCC(F)(F)[C@@H](C)OC(=O)Nc1c(C)noc1-c1ccc(C#CC2(CC(=O)O)CC2)c(CF)n1` [compound 335], the half-inhibitory concentration (IC50) stood at 113 nM. Then `CCOc1ccnc(NCc2c(-c3ccc(C#CC4(CC(=O)O)CC4)c(C)n3)nnn2C)n1` [compound 118], with 83.9 nM; and `CCC(F)(F)[C@@H](C)OC(=O)Nc1c(-c2ccc(C#CC3(CC(=O)O)CC4(CC4)C3)c(C)n2)nnn1C` [compound 449], with 5.6 nM; and `CCC(F)(F)[C@@H](C)OC(=O)Nc1c(-c2ccc(C#CC3(CC(=O)O)CC4(CC4)C3)c(Cl)n2)nnn1C` [compound 503], with 8.5 nM. The result for `CCC(F)(F)[C@@H](C)OC(=O)Nc1c(C)noc1-c1ccc(C#CC2(CC(=O)O)CC(OC)C2)c(Cl)n1` (stereo partly shown) [compound 471] reads 33.6 nM.

For `CCOC1CC(C#Cc2ccc(-c3nnn(C)c3NC(=O)O[C@H](C)C(F)(F)CC)nc2Cl)(CC(=O)O)C1` (stereo partly shown) [compound 467], the half-inhibitory concentration (IC50) is 16.5 nM. Then `Cc1nc(-c2nnn(C)c2NC(=O)O[C@H](C)CC(C)C)ccc1C#C[C@@H]1CC(F)(F)C[C@H]1C(=O)O` [compound 299], with 13.6 nM; and `CCC[C@@H](C)OC(=O)Nc1c(-c2ccc(C#CC3(P(=O)(O)O)CC4(CC4)C3)c(C)n2)nnn1C` [compound 510], with 32.1 nM.
